# Patent US10774080B2, “Pyrimidine compound as JAK kinase inhibitor” (THERAVANCE BIOPHARMA R&D IP, LLC, priority 2017, dated 2020)
# What was measured:
# [1] = test system: IL-22 stimulated STAT3 phosphorylation in normal human epidermal keratinocytes; test: Assay 14: inhibition of IL-22 stimulated pSTAT3 in normal human epidermal keratinocytes; format: cell-based; conditions: Keratinocyte, read-out: pIC50 for inhibition of IL-22 induced STAT3 phosphorylation (converted)
# Method: Assay 14: Inhibition of IL-22 Stimulated pSTAT3 in Normal Human Epidermal Keratinocytes
# The potency of test compounds for inhibition of interleukin-22 (IL-22) stimulated STAT3 phosphorylation was measured in the normal human epidermal keratinocytes (ATCC) using AlphaLisa. Phosphorylated STAT3 was measured via the AlphaLISA SureFire Ultra pSTAT3 (Tyr705) kit (PerkinElmer).
# Primary epidermal keratinocytes were cultured in a 37° C., 5% CO2 humidified incubator in dermal cell basal medium (ATCC) supplemented with keratinocyte growth kit (ATCC) and 1× Pen/Strep (Life Technologies). […]
# After cytokine stimulation, cells were lysed with 5 ul of 5× AlphaLisa Lysis Buffer (PerkinElmer) containing 1× PhosStop and Complete tablets (Roche). […] Phosphorylated STAT3 was measured via the pSTAT3 AlphaLisa kit (PerkinElmer). […] Luminescence was measured with excitation at 689 nm and emission at […] using an EnVision plate reader (PerkinElmer) under green filtered <100 lux light.
# Luminescence signals were recorded and utilized to calculate the percent inhibition values based on DMSO and controls. For dose-response analysis, percent inhibition data were plotted vs. compound concentrations, and IC50 values were determined from a 4-parameter robust fit model with the Prism software.
# [2] = Assay 7: epidermal and dermal deposition in freshly excised human skin; format: in vitro ADME; conditions: 0.5% ointment, about 40 hours continuous exposure
# Method: (§1) Assay 7: Ex Vivo JAK Pharmacodynamic (PD) Assay Using Human Freshly Excised Skin An ex vivo JAK pharmacodynamics (PD) assay was conducted using human isolated skin tissue. The PD assay used fresh human skin (dermatome of 750 μm thickness) that was mounted in static Franz cells with a surface area of ˜0.5 cm^2. The receiver chambers of the Franz cells were filled with warm (37° C.) cornification media and placed in an incubator at 37° C. The skin was topically dosed with 10 μL ([…]) of compound (I) or vehicle and was left undisturbed overnight (˜24 hours). The next day, with no re-application of the test compound or vehicle, the media was replaced with a Th1-skewed stimulation cocktail consisting of TNFα, IFNγ and IL-12. The skin was left undisturbed for an additional 16 hours, and then harvested and processed for RNA extraction and qPCR of biomarkers: CXCL10, CCL2. GAPDH was used as an internal standard. The compound (I) was formulated in an ointment formulation at 0.5% strength. A total of three skin donors (tested in quadruplicates/sample/treatment) were used. Treatment effect was calculated as the percent increase or decrease in stimulation compared to the vehicle group. [table]
# [3] = in vitro; format: in vitro ADME; conditions: human, microsomes
# Method: Assay 17: Human Liver Microsome Assay The objective of this assay was to assess the metabolic stability of test compounds in an in vitro human liver sub-fraction. Human liver microsomes obtained from Bioreclamation-IVT (Baltimore, Md.) were thawed on ice and diluted into 0.1M potassium phosphate buffer pH 7.4 to yield final incubation protein concentrations of 0.1 mg/mL. […] Incubations were conducted at 37° C. temperature and test aliquots were taken at time points 0, 5, 8, 15, 30 and 45 minutes. […] The resulting samples were injected onto an LC-MS/MS system for analysis. For each incubation, the peak area of the analytes in each t0 aliquot was set to 100% and the peak areas from subsequent time point aliquots were converted to percentage of parent compound remaining relative to t0. The percentage of parent compound remaining was converted to natural log scale and plotted versus time in minutes. A linear regression analysis was performed for the initial decline of the parent disappearance profile and a formula for the best-fit line determined. The slope of the resultant line was normalized to protein concentration in mg/mL protein or number of cells/mL and CLint was calculated as follows for liver microsomes: CLint (μL·min^−1·mg^−1)=(Slope×1000)/[protein,mg/mL]
# [4] = test system: CXCL10 gene expression; test: Assay 7: ex vivo JAK PD assay, freshly excised human skin, CXCL10; conditions: 0.5% ointment, about 40 hours continuous exposure, Th1-skewed stimulation (TNFα, IFNγ, IL-12), vs vehicle
# Method: as §1
smiles,measurement,setting,value
"CCS(=O)(=O)N1[C@@H]2CCC[C@H]1C[C@H](N(C)c1nc(CO)c(F)c(Nc3cc(C)[nH]n3)n1)C2 [Compound (I), (2-(((1R,3s,5S)-9-(ethylsulfonyl)-9-azabicyclo[3.3.1]nonan-3-yl)(methyl)amino)-5-fluoro-6-((5-methyl-1H-pyrazol-3-yl)amino)pyrimidin-4-yl)methanol]",IC50,[1],3.98 nM
same,"PK-Tissue concentration (μM, mean ± SD) Dermis",[2],6.1 ± 5.3 µM
same,"PK-Tissue concentration (μM, mean ± SD) Epidermis",[2],116.5 ± 91.9 µM
same,microsomal CLint at 0.1 μM,"[3]; pH 7.4, HLM Clint",136 µL/min/mg
same,microsomal CLint at 0.1 μM,"[3]; pH 7.4, clearance class in human microsomes",> 50 µL/min/mg
same,PD-% Inhibition (mean ± SD) CXCL10,[4],90.1%
